In brackets after ≈: the same amount, converted by molar mass. Like-named read-outs stand apart in the source and are kept apart here.
What was measured:
[1] = test system: ECM6006 aph(3′)-III; experiment: microbe, parasite or virus in culture; type: cell-based, Escherichia coli; details: Escherichia coli, read-out: Compound MIC on Bacterial Strains: ECM6006 aph(3′)-III
Experimental: (§1) To compare microbiological activity of the test compounds, minimum inhibitory concentrations (MIC.s) were determined. Antibiotic MICs were obtained using the broth microdilution method according to Clinical and Laboratory Standards Institute (CLSI) approved guidelines (Methods for dilution antimicrobial susceptibility tests for bacteria that grow aerobically; approved standard—7th ed. CLSI document M7-A7. Clinical and Laboratory Standards Institute, Wayne, Pa., incorporated herein by reference in its entirety). Antibiotics were dissolved as specified by CLSI (Performance standards for antimicrobial susceptibility testing; Seventeenth informational supplement. CLSI document M100-S17. Clinical and Laboratory Standards Institute, Wayne, Pa., incorporated herein by reference in its entirety), and were serially diluted 2-fold in cation adjusted Mueller Hinton Broth (CaMHB) at 2× concentration. Bacterial inoculums were prepared in CaMHB by suspension of a colony from an agar plate that was prepared the previous day to obtain a final concentration of 5×10^5CFU/ml. The plates were incubated for 18 hours at 35° C. […] MIC.s were determined by reading the turbidity of plate wells using a SpectraMax Plus384 plate reader (Molecular Devices, Sunnyvale, Calif., USA) at 600 nm and were confirmed by visual inspection.
(§2) Activity of the test compounds was determined using QC strains and strains with known aminoglycoside resistance mechanisms (TABLE 3). This specific panel contained strains expressing enzymes that covalently modify N2″, N3 and N3′ positions.

[2] = test system: ECM6009 aac(3)-II; experiment: microbe, parasite or virus in culture; type: cell-based, Escherichia coli; details: Escherichia coli, read-out: Compound MIC on Bacterial Strains: ECM6009 aac(3)-II
Experimental: as §1, §2

[3] = test system: ECM6010 ant(2″)-I; experiment: microbe, parasite or virus in culture; type: cell-based, Escherichia coli; details: Escherichia coli, read-out: Compound MIC on Bacterial Strains: ECM6010 ant(2″)-I
Experimental: as §1, §2

[4] = test system: ECM6011 aph(3′)-I; experiment: microbe, parasite or virus in culture; type: cell-based, Escherichia coli; details: Escherichia coli, read-out: Compound MIC on Bacterial Strains: ECM6011 aph(3′)-I
Experimental: as §1, §2

[5] = test system: ECM6003 rmtB; experiment: microbe, parasite or virus in culture; type: cell-based, Escherichia coli; details: Escherichia coli; Table 3; read-out: Compound MIC on Bacterial Strains: ECM6003 rmtB
Experimental: as §1, §2
The panel also contained a strain expressing ribosomal RNA methylase, RmtB.

[6] = test system: EC1002 aph(3′)-IV; experiment: organism not typed; type: cell-based; details: read-out: Compound MIC on Bacterial Strains: EC1002 aph(3′)-IV
Experimental: as §1, §2

[7] = test system: EC1001 acc(6′)-Ib; experiment: microbe, parasite or virus in culture; type: cell-based, Escherichia coli; details: Escherichia coli; Table 4; read-out: Compound MIC on Bacterial Strains: Escherichia coli EC1001 acc(6′)-Ib
Experimental: as §1

[8] = test system: ECM6007 aac(6′) + aph(2″); experiment: microbe, parasite or virus in culture; type: cell-based, Escherichia coli; details: Escherichia coli, 18 h; Table 4; read-out: Compound MIC on Bacterial Strains: Escherichia coli ECM6007 aac(6′) + aph(2″)
Experimental: as §1

[9] = test system: ACM1005 ATCC 19004; experiment: MIC, broth microdilution; type: cell-based, Acinetobacter baumannii; details: Acinetobacter baumannii, ATCC19004; Table 4; read-out: Compound MIC on Bacterial Strains: Acinetobacter baumannii ACM1005 ATCC 19004
Experimental: as §1

[10] = test system: ACM1006 acc(6′)-Ib; experiment: microbe, parasite or virus in culture; type: cell-based, Acinetobacter baumannii; details: Acinetobacter baumannii; Table 4; read-out: Compound MIC on Bacterial Strains: Acinetobacter baumannii ACM1006 acc(6′)-Ib
Experimental: as §1

[11] = test system: Sa 287 aac(6′) + aph(2″); experiment: microbe, parasite or virus in culture; type: cell-based, Staphylococcus aureus; details: Staphylococcus aureus, 18 h; Table 5; read-out: Compound MIC on Bacterial Strains: Staphylococcus aureus Sa 287 aac(6′) + aph(2″)
Experimental: as §1

[12] = test system: Escherichia coli (ATCC 25922); experiment: MIC, broth microdilution; details: Escherichia coli
[13] = test system: Staphylococcus aureus (ATCC 29213); experiment: MIC, broth microdilution; details: Staphylococcus aureus
[14] = test system: Klebsiella pneumonia (ATCC 43816); experiment: MIC, broth microdilution; details: Klebsiella pneumoniae, ATCC43816, read-out: Compound MIC on Bacterial Strains: K. pneumonia ATCC 43816
[15] = test system: Pseudomonas aeruginosa (ATCC 27853); experiment: MIC, broth microdilution; details: Pseudomonas aeruginosa
[16] = test system: Acinetobacter baumannii (ATCC 19606); experiment: MIC, broth microdilution; details: Acinetobacter baumannii, ATCC19606, read-out: Compound MIC on Bacterial Strains: A. baumannii ATCC 19606
[17] = test system: PAM3072 aac(6′)-II; experiment: microbe, parasite or virus in culture; type: cell-based, Pseudomonas aeruginosa; details: Pseudomonas aeruginosa, Table 5; read-out: Compound MIC on Bacterial Strains: Pseudomonas aeruginosa PAM3072 aac(6′)-II
Experimental: as §1

[18] = test system: PAM3073 aac(6′)-I; experiment: microbe, parasite or virus in culture; type: cell-based, Pseudomonas aeruginosa; details: Pseudomonas aeruginosa, Table 5; read-out: Compound MIC on Bacterial Strains: Pseudomonas aeruginosa PAM3073 aac(6′)-I
Experimental: as §1

[19] = ATCC25922, read-out: Compound MIC on Bacterial Strains: E. coli ATCC 25922
[20] = ATCC25922, read-out: Compound MIC on Bacterial Strains: ECM6000 ATCC 25922
[21] = ATCC25922, read-out: Compound MIC on Bacterial Strains: Escherichia coli ECM6000 ATCC 25922
[22] = ATCC29213, read-out: Compound MIC on Bacterial Strains: S. aureus ATCC 29213, QC strain, Table 2
[23] = ATCC29213, read-out: Compound MIC on Bacterial Strains: Staphylococcus aureus SAM1000 ATCC 29213, Table 5
[24] = ATCC27853, read-out: Compound MIC on Bacterial Strains: P. aeruginosa ATCC 27853
[25] = ATCC27853, read-out: Compound MIC on Bacterial Strains: Pseudomonas aeruginosa PAM3034 ATCC 27853

| Structure (SMILES) | MIC [1] [µg/mL] | MIC [2] [µg/mL] | MIC [3] [µg/mL] | MIC [4] [µg/mL] | MIC [5] [µg/mL] | MIC [6] [µg/mL] | MIC [7] [µg/mL] | MIC [8] [µg/mL] | MIC [9] [µg/mL] | MIC [10] [µg/mL] | MIC [12, 19] [µg/mL] | MIC [12, 20] [µg/mL] | MIC [12, 21] [µg/mL] | MIC [13, 22] [µg/mL] | MIC [13, 23] [µg/mL] | MIC [14] [µg/mL] | MIC [15, 24] [µg/mL] | MIC [15, 25] [µg/mL] | MIC [16] [µg/mL] | MIC [17] [µg/mL] | other results |
| --- | --- | --- | --- | --- | --- | --- | --- | --- | --- | --- | --- | --- | --- | --- | --- | --- | --- | --- | --- | --- | --- |
| NCC[C@H](O)C(=O)N[C@@H]1C[C@H](N)[C@@H](O[C@H]2O[C@H](CN)[C@@H](O)[C@H](O)[C@H]2O)[C@H](O)[C@H]1O[C@H]1O[C@H](CO)[C@@H](O)[C@H](N)[C@H]1O [Amikacin, reference compound] | 1 to 8 (≈ 1.71 to 13.7 µM) | < 1 | 1 to 8 (≈ 1.71 to 13.7 µM) | 1 to 8 (≈ 1.71 to 13.7 µM) | > 8 | > 8 | > 8 | < 1 | < 1 | 1 to 8 (≈ 1.71 to 13.7 µM) | 1 to 8 (≈ 1.71 to 13.7 µM) | 1 to 8 (≈ 1.71 to 13.7 µM) | 1 to 8 (≈ 1.71 to 13.7 µM) | 1 to 8 (≈ 1.71 to 13.7 µM) | < 1 | < 1 | 1 to 8 (≈ 1.71 to 13.7 µM) | 1 to 8 (≈ 1.71 to 13.7 µM) | 1 to 8 (≈ 1.71 to 13.7 µM) |  | MIC [11]: > 8 µg/mL |
| CN[C@@H]1C(O)[C@@H](OC2C(O)C(O[C@H]3O[C@H](CN)CCC3N)[C@@H](N)C[C@H]2NC(=N)CO)OCC1(C)O (stereo partly drawn) [Compound 22, N-((1R,2S,3S,4R,5S)-5-amino-4-((2R,3R,6S)-3-amino-6-(aminomethyl)tetrahydro-2H-pyran-2-vlxy)-2-((2R,3R,4R,5R)-3,5-dihydroxy-5-methyl-4-(methylamino)tetrahydro-2H-pyran-2-yloxy)-3-hydroxycyclohexyl)-2-hydroxy acetimidamide] | 1 to 8 (≈ 1.97 to 15.8 µM) | > 8 | > 8 | 1 to 8 (≈ 1.97 to 15.8 µM) | > 8 | 1 to 8 (≈ 1.97 to 15.8 µM) | > 8 | 1 to 8 | 1 to 8 (≈ 1.97 to 15.8 µM) | > 8 | 1 to 8 (≈ 1.97 to 15.8 µM) | 1 to 8 (≈ 1.97 to 15.8 µM) | 1 to 8 (≈ 1.97 to 15.8 µM) | < 1 | < 1 | < 1 | < 1 | 1 to 8 (≈ 1.97 to 15.8 µM) | > 8 | > 8 | MIC [18]: 1 to 8 µg/mL (≈ 1.97 to 15.8 µM) |
| CN[C@@H]1[C@@H](O)[C@@H](O[C@@H]2[C@@H](O)[C@H](O[C@H]3O[C@H](CNCCO)CC[C@H]3N)[C@@H](N)C[C@H]2NC(=O)[C@@H](O)CCCN)OC[C@]1(C)O [Compound 40, (S)-5-amino-N-((1R,2S,3S,4R,5S)-5-amino-4-((2R,3R,6S)-3-amino-6-((2-hydroxyethylamino)methyl)tetrahydro-2H-pyran-2-yloxy)-2-((2R,3R,4R,5R)-3,5-dihydroxy-5-methyl-4-(methylamino)tetrahydro-2H-pyran-2-yloxy)-3-hydroxycyclohexyl)-2-hydroxypentanamide] | 1 to 8 (≈ 1.64 to 13.1 µM) | < 1 | < 1 | < 1 | > 8 | 1 to 8 (≈ 1.64 to 13.1 µM) | 1 to 8 (≈ 1.64 to 13.1 µM) | < 1 | 1 to 8 (≈ 1.64 to 13.1 µM) | 1 to 8 (≈ 1.64 to 13.1 µM) | 1 to 8 (≈ 1.64 to 13.1 µM) | 1 to 8 (≈ 1.64 to 13.1 µM) | 1 to 8 (≈ 1.64 to 13.1 µM) | 1 to 8 (≈ 1.64 to 13.1 µM) | 1 to 8 (≈ 1.64 to 13.1 µM) | < 1 | > 8 | > 8 | > 8 | > 8 | MIC [18]: 1 to 8 µg/mL (≈ 1.64 to 13.1 µM) |
| CN[C@@H]1[C@@H](O)[C@@H](O[C@@H]2[C@@H](O)[C@H](O[C@H]3O[C@H](CNCCO)CC[C@H]3N)[C@@H](N)C[C@H]2NC(=O)C2(O)CNC2)OC[C@]1(C)O [Compound 43, N-((1R,2S,3S,4R,5S)-5-amino-4-((2R,3R,6S)-3-amino-6-((2-hydroxyethylamino)methyl)tetrahydro-2H-pyran-2-yloxy)-2-((2R,3R,4R,5R)-3,5-dihydroxy-5-methyl-4-(methylamino)tetrahydro-2H-pyran-2-yloxy)-3-hydroxycyclohexyl)-3-hydroxyazetidine-3-carboxamide] | < 1 | 1 to 8 (≈ 1.69 to 13.5 µM) | < 1 | < 1 | > 8 | 1 to 8 (≈ 1.69 to 13.5 µM) | 1 to 8 (≈ 1.69 to 13.5 µM) | < 1 | 1 to 8 (≈ 1.69 to 13.5 µM) | < 1 | < 1 | < 1 | < 1 | < 1 | < 1 | < 1 | 1 to 8 (≈ 1.69 to 13.5 µM) | 1 to 8 (≈ 1.69 to 13.5 µM) | > 8 | > 8 | MIC [18]: 1 to 8 µg/mL (≈ 1.69 to 13.5 µM) |
| CN[C@@H]1[C@@H](O)[C@@H](O[C@@H]2[C@@H](O)[C@H](O[C@H]3O[C@H](CNCCF)CC[C@H]3N)[C@@H](N)C[C@H]2NC(=O)[C@@H](O)CN)OC[C@]1(C)O [Compound 46, (S)-3-amino-N-((1R,2S,3S,4R,5S)-5-amino-4-((2R,3R,6S)-3-amino-6-((2-fluoroethylamino)methyl)tetrahydro-2H-pyran-2-yloxy)-2-((2R,3R,4R,5R)-3,5-dihydroxy-5-methyl-4-(methylamino)tetrahydro-2H-pyran-2-yloxy)-3-hydroxycyclohexyl)-2-hydroxypropanamide] | < 1 | < 1 | < 1 | < 1 | > 8 | < 1 | 1 to 8 (≈ 1.72 to 13.7 µM) | < 1 | 1 to 8 (≈ 1.72 to 13.7 µM) | 1 to 8 (≈ 1.72 to 13.7 µM) | < 1 | < 1 | < 1 | < 1 | < 1 | < 1 | 1 to 8 (≈ 1.72 to 13.7 µM) | 1 to 8 (≈ 1.72 to 13.7 µM) | > 8 | > 8 | MIC [18]: 1 to 8 µg/mL (≈ 1.72 to 13.7 µM) |
| CCN[C@@H]1C[C@H](N)[C@@H](O[C@H]2OC(CN)=CC[C@H]2N)[C@H](O)[C@H]1O[C@H]1OC[C@](C)(O)[C@H](NC)[C@H]1O [Netilmicin, reference compound] | < 1 | > 8 | < 1 | < 1 | > 8 | < 1 | > 8 | < 1 | 1 to 8 (≈ 2.1 to 16.8 µM) | > 8 | < 1 | < 1 | < 1 | < 1 | < 1 | < 1 | 1 to 8 (≈ 2.1 to 16.8 µM) | 1 to 8 (≈ 2.1 to 16.8 µM) | > 8 | > 8 | MIC [18]: > 8 µg/mL |
